Legend:
[1] = test system: subjects with Sjögren's syndrome; settings: no sustained benefit in controlled clinical trials; cited from earlier work
[2] = test system: subjects with Sjögren's syndrome; settings: at 24 weeks, 30 subjects per group, p<0.001; cited from earlier work
[3] = test system: subjects with primary Sjögren's syndrome; assay: Phase 3 trial, 24 weeks, IFN lozenges versus 200 mg CAM placebo lozenges; type: in vivo, human
Text: (§1) The purposes of our investigations were to examine the safety and efficacy of four different dosages of IFN lozenges compared to placebo in subjects with primary Sjögren's syndrome over a 12-week period in a Phase 2 trial, and to examine the best dose from our Phase 2 trial in a 24-week Phase 3 trial. The primary endpoints of our Phase 2 and Phase 3 trials were measurements of unstimulated saliva and stimulated saliva and subjective assessments of dry mouth. The IFN-α was delivered to the patients in 200 mg lozenges consisting of crystalline anhydrous maltose (CAM). The placebo was 200 mg CAM without IFN in both (Phase 2 and Phase 3) clinical trials. […] The IFN-treated group did even better (73% and 81%, respectively), but the beneficial effect of CAM on UWS was striking. […] Not only will this benefit patients with Sjögren's syndrome, but CAM should benefit people with dry mouth from other causes.

[4] = test system: subjects with primary Sjögren's syndrome; assay: Phase 2 trial, 12 weeks, four dosages of IFN lozenges versus CAM placebo; type: in vivo, human; settings: Phase 2, placebo (200 mg CAM) treated patients
Text: as §1

Compound: CC1OC2(CS1)CN1CCC2CC1 (stereo not shown) [cevimeline]
- salivary output [1]: increase salivary output transiently

Compound: CC[C@@H]1C(=O)OC[C@@H]1Cc1cncn1C [pilocarpine]
- salivary output [1]: increase salivary output transiently

Compound: sucralfate
- subjects with ≧100% increase from baseline in stimulated whole salivary flow [2]: 3%

Compound: CN(Cc1cc(Br)cc(Br)c1N)C1CCCCC1 [bromhexine]
- salivary output [1]: increase salivary output transiently

Compound: OC[C@H]1O[C@H](O[C@H]2[C@H](O)[C@@H](O)[C@H](O)O[C@@H]2CO)[C@H](O)[C@@H](O)[C@@H]1O [CAM, crystalline anhydrous maltose]
- overall result of lozenge administration ([3]; 200 mg maltose lozenges three times daily): Good results
- patients with an increase in unstimulated whole saliva (UWS) ([3]; Phase 3, after 6 months of daily treatment, 200 mg lozenges): 63.3%
- patients with an increase in UWS by 12 weeks [4]: 9 of 18

— patent publication US6656920B2, “Composition and method for promoting oral health” (Amarillo Biosciences, Inc., priority 2000, dated 2003)
